{
  "source": "patent US8877778B2",
  "about": "“Benzofurane compounds” (Hoffmann-La Roche Inc., priority 2010, dated 2014)",
  "key": {"[1]": {"biological_target": "human D3 receptor (Homo sapiens (Human), UniProt P35462)", "sequence (P35462 whole entry)": "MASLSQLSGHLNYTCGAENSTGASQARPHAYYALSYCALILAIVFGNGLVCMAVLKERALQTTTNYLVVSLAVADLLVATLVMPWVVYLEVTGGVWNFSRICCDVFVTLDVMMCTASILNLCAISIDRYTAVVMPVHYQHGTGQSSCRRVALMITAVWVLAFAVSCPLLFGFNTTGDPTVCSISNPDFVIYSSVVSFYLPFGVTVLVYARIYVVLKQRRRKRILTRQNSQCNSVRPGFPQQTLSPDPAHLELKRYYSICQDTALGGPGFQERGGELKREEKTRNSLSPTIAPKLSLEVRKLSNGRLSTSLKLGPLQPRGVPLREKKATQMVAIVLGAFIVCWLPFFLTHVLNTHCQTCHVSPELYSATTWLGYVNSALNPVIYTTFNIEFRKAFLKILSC", "experiment": "Radioligand binding ([3H]-spiperone) to cloned receptors expressed in HEK-293 EBNA cells", "details": "HEK293 EBNA cell membranes expressing human D3", "procedure,_shortened": "(§1)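 Membranes from transiently transfected HEK293 EBNA cells incubated 1 h at RT with ten compound concentrations (10 μM–0.1 nM). D2/D3: [3H]-spiperone ~0.7/0.5 nM, Tris–NaCl–Mg/Ca buffer pH 7.4; 5-HT2A: [3H]-ketanserin 1.1 nM, Tris–MgCl2–EGTA pH 7.4.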"}, "[2]": {"biological_target": "human D2 receptor (Homo sapiens (Human), UniProt P14416)", "sequence (P14416 whole entry)": "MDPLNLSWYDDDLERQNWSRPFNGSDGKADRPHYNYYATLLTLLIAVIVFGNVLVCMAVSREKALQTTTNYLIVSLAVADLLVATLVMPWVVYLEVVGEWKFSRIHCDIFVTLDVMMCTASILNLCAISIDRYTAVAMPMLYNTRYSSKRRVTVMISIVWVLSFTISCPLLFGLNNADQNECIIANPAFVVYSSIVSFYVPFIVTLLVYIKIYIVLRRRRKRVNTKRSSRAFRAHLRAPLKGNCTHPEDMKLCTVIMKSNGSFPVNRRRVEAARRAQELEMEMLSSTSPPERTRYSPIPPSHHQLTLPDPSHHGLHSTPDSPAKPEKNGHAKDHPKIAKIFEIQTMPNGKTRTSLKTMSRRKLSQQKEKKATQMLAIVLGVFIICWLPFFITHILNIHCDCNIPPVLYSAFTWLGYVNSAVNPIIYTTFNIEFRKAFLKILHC", "experiment": "Radioligand binding ([3H]-spiperone) to cloned receptors expressed in HEK-293 EBNA cells", "details": "HEK293 EBNA cell membranes expressing human D2", "procedure,_shortened": "as §1"}, "[3]": {"biological_target": "human 5-HT2A receptor (Homo sapiens (Human), UniProt P28223)", "sequence (P28223 whole entry)": "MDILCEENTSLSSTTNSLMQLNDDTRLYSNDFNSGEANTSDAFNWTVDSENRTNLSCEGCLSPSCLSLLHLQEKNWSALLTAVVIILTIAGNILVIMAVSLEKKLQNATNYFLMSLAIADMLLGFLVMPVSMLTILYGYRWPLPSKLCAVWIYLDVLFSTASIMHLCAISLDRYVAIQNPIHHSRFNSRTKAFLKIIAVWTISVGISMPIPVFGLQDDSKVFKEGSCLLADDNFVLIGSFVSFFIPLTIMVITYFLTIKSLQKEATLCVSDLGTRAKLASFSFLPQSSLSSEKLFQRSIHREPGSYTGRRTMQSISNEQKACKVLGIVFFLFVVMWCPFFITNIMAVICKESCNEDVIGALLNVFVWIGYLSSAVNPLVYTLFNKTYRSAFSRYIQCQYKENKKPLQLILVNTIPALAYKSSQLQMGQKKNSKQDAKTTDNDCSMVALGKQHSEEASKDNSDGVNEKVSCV", "experiment": "Radioligand binding ([3H]-ketanserin) to cloned receptors expressed in HEK-293 EBNA cells", "details": "HEK293 EBNA cell membranes expressing human 5-HT2A", "procedure,_shortened": "as §1"}},
  "data": [
    {"compound": "C/C=C/CC(=O)N[C@H]1CC[C@H](CCN2CCC(c3cccc4c3CCO4)CC2)CC1", "note": "[Example 85, (E)-Pent-3-enoic acid trans-(4-{2-[4-(2,3-dihydro-benzofuran-4-yl)-piperidin-1-yl]-ethyl}-cyclohexyl)-amide]", "values": [
      {"measurement": "Ki", "setting": "[1]", "value": 5.79, "unit": "nM"},
      {"measurement": "Ki", "setting": "[2]", "value": 438, "unit": "nM"},
      {"measurement": "melting point", "value": 196, "unit": "°C"},
      {"measurement": "Ki", "setting": "[3]", "value": 77.3, "unit": "nM"}
    ]},
    {"compound": "CC#CC(=O)N[C@H]1CC[C@H](CCN2CCC(c3cccc4c3CCO4)CC2)CC1", "note": "[Example 86, But-2-ynoic acid trans-(4-{2-[4-(2,3-dihydro-benzofuran-4-yl)-piperidin-1-yl]-ethyl}-cyclohexyl)-amide]", "values": [
      {"measurement": "Ki", "setting": "[1]", "value": 7.3, "unit": "nM"},
      {"measurement": "Ki", "setting": "[2]", "value": 118, "unit": "nM"},
      {"measurement": "melting point", "value": 195, "unit": "°C"},
      {"measurement": "Ki", "setting": "[3]", "value": 45.9, "unit": "nM"}
    ]},
    {"compound": "O=CN[C@H]1CC[C@H](CCN2CCC(c3cccc4c3CCO4)CC2)CC1", "note": "[Example 87, trans-N-(4-{2-[4-(2,3-Dihydro-benzofuran-4-yl)-piperidin-1-yl]-ethyl}-cyclohexyl)-formamide]", "values": [
      {"measurement": "Ki", "setting": "[1]", "value": 11.5, "unit": "nM"},
      {"measurement": "Ki", "setting": "[2]", "value": 167, "unit": "nM"},
      {"measurement": "melting point", "value": 142, "unit": "°C"},
      {"measurement": "Ki", "setting": "[3]", "value": 107, "unit": "nM"}
    ]},
    {"compound": "CC(C)(C)Oc1ccc(C(=O)N[C@H]2CC[C@H](CCN3CCC(c4cccc5c4CCO5)CC3)CC2)cc1", "note": "[Example 88, trans-4-tert-Butoxy-N-(4-{2-[4-(2,3-dihydro-benzofuran-4-yl)-piperidin-1-yl]-ethyl}-cyclohexyl)-benzamide]", "values": [
      {"measurement": "Ki", "setting": "[1]", "value": 22.2, "unit": "nM"},
      {"measurement": "D2 Ki", "setting": "[2]", "value": "inactive"},
      {"measurement": "melting point", "value": 216, "unit": "°C"},
      {"measurement": "Ki", "setting": "[3]", "value": 42.8, "unit": "nM"}
    ]},
    {"compound": "O=C(N[C@H]1CC[C@H](CCN2CCC(c3cccc4c3CCO4)CC2)CC1)c1ccc(Cl)cc1Cl", "note": "[Example 89, trans-2,4-Dichloro-N-(4-{2-[4-(2,3-dihydro-benzofuran-4-yl)-piperidin-1-yl]-ethyl}-cyclohexyl)-benzamide]", "values": [
      {"measurement": "Ki", "setting": "[1]", "value": 8.28, "unit": "nM"},
      {"measurement": "Ki", "setting": "[2]", "value": 234, "unit": "nM"},
      {"measurement": "melting point", "value": 188, "unit": "°C"},
      {"measurement": "Ki", "setting": "[3]", "value": 31.5, "unit": "nM"}
    ]},
    {"compound": "O=C(N[C@H]1CC[C@H](CCN2CCC(c3cccc4c3CCO4)CC2)CC1)c1ccc(-n2cccc2)cc1", "note": "[Example 90, trans-N-(4-{2-[4-(2,3-Dihydro-benzofuran-4-yl)-piperidin-1-yl]-ethyl}-cyclohexyl)-4-pyrrol-1-yl-benzamide]", "values": [
      {"measurement": "Ki", "setting": "[1]", "value": 10.5, "unit": "nM"},
      {"measurement": "Ki", "setting": "[2]", "value": 85.1, "unit": "nM"},
      {"measurement": "melting point", "value": 228, "unit": "°C"},
      {"measurement": "Ki", "setting": "[3]", "value": 30.4, "unit": "nM"}
    ]},
    {"compound": "O=C(N[C@H]1CC[C@H](CCN2CCC(c3cccc4c3CCO4)CC2)CC1)c1ccc(-c2ccccc2)cc1", "note": "[Example 91, Biphenyl-4-carboxylic acid trans-(4-{2-[4-(2,3-dihydro-benzofuran-4-yl)-piperidin-1-yl]-ethyl}-cyclohexyl)-amide]", "values": [
      {"measurement": "Ki", "setting": "[1]", "value": 7.81, "unit": "nM"},
      {"measurement": "Ki", "setting": "[2]", "value": 501, "unit": "nM"},
      {"measurement": "melting point", "value": 241, "unit": "°C"},
      {"measurement": "Ki", "setting": "[3]", "value": 28.1, "unit": "nM"}
    ]},
    {"compound": "O=C(N[C@H]1CC[C@H](CCN2CCC(c3cccc4c3CCO4)CC2)CC1)c1ccc(-c2cccnc2)cc1", "note": "[Example 92, trans-N-(4-{2-[4-(2,3-Dihydro-benzofuran-4-yl)-piperidin-1-yl]-ethyl}-cyclohexyl)-4-pyridin-3-yl-benzamide]", "values": [
      {"measurement": "Ki", "setting": "[1]", "value": 5.35, "unit": "nM"},
      {"measurement": "Ki", "setting": "[2]", "value": 99.8, "unit": "nM"},
      {"measurement": "melting point", "value": 224, "unit": "°C"},
      {"measurement": "Ki", "setting": "[3]", "value": 25.4, "unit": "nM"}
    ]},
    {"compound": "O=C(Cc1noc2ccccc12)N[C@H]1CC[C@H](CCN2CCC(c3cccc4c3CCO4)CC2)CC1", "note": "[Example 93, trans-2-Benzo[d] isoxazol-3-yl-N-(4-{2-[4-(2,3-dihydro-benzofuran-4-yl)-piperidin-1-yl]-ethyl}-cyclohexyl)-acetamide]", "values": [
      {"measurement": "Ki", "setting": "[1]", "value": 3.21, "unit": "nM"},
      {"measurement": "Ki", "setting": "[2]", "value": 244, "unit": "nM"},
      {"measurement": "melting point", "value": 214, "unit": "°C"},
      {"measurement": "Ki", "setting": "[3]", "value": 30.7, "unit": "nM"}
    ]},
    {"compound": "O=C(Cc1ccc2c(c1)OCO2)N[C@H]1CC[C@H](CCN2CCC(c3cccc4c3CCO4)CC2)CC1", "note": "[Example 94, trans-2-Benzo[1,3]dioxol-5-yl-N-(4-{2-[4-(2,3-dihydro-benzofuran-4-yl)-piperidin-1-yl]-ethyl}-cyclohexyl)-acetamide]", "values": [
      {"measurement": "Ki", "setting": "[1]", "value": 3.65, "unit": "nM"},
      {"measurement": "Ki", "setting": "[2]", "value": 721, "unit": "nM"},
      {"measurement": "melting point", "value": 209, "unit": "°C"},
      {"measurement": "Ki", "setting": "[3]", "value": 45.3, "unit": "nM"}
    ]},
    {"compound": "CS(=O)(=O)c1ccc(C(=O)N[C@H]2CC[C@H](CCN3CCC(c4cccc5c4CCO5)CC3)CC2)cc1", "note": "[Example 95, trans-N-(4-{2-[4-(2,3-Dihydro-benzofuran-4-yl)-piperidin-1-yl]-ethyl}-cyclohexyl)-4-methanesulfonyl-benzamide]", "values": [
      {"measurement": "Ki", "setting": "[1]", "value": 14, "unit": "nM"},
      {"measurement": "Ki", "setting": "[2]", "value": 162, "unit": "nM"},
      {"measurement": "melting point", "value": 236, "unit": "°C"},
      {"measurement": "Ki", "setting": "[3]", "value": 14.7, "unit": "nM"}
    ]}
  ]
}
